Four cell lines from the supplement of paper PMC10307832 can be followed below.

Common to all, as to assay: relative viability (nuclei count vs DMSO), 5 days (fraction); higher = more cells survive
Compound in the test “Halofuginone + Lapatinib”: O=C(C[C@H]1NCCC[C@@H]1O)Cn1cnc2cc(Br)c(Cl)cc2c1=O (racemic) [Halofuginone] + CS(=O)(=O)CCNCc1ccc(-c2ccc3ncnc(Nc4ccc(OCc5cccc(F)c5)c(Cl)c4)c3c2)o1 [Lapatinib] (partner 2 µM)
Summed up: (§1)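 One day after seeding in 1536-well plates, lung cancer cell lines were dosed by pin tool. Dosing was either single-drug or a fixed anchor-drug dose plus five library-drug doses (not always all listed) in √10 steps. After 5 days, nuclei were stained in one fix-and-stain step and counted on 4× images, and relative viability is the nuclei count of treated wells over that of vehicle wells, given as the median of duplicate plates.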

Compound in the test “Decitabine + Pemetrexed”: Nc1ncn([C@H]2C[C@H](O)[C@@H](CO)O2)c(=O)n1 [Decitabine] + Nc1nc2[nH]cc(CCc3ccc(C(=O)N[C@@H](CCC(=O)O)C(=O)O)cc3)c2c(=O)[nH]1 [Pemetrexed] (partner 0.2 µM)
The gist of the method:
as §1

Compound in the test “Cediranib + Foretinib”: COc1cc2c(Oc3ccc4[nH]c(C)cc4c3F)ncnc2cc1OCCCN1CCCC1 [Cediranib] + COc1cc2c(Oc3ccc(NC(=O)C4(C(=O)Nc5ccc(F)cc5)CC4)cc3F)ccnc2cc1OCCCN1CCOCC1 [Foretinib] (partner 0.25 µM)
Summed up:
as §1

Compound in the test “Decitabine + Alpelisib”: Nc1ncn([C@H]2C[C@H](O)[C@@H](CO)O2)c(=O)n1 [Decitabine] + Cc1nc(NC(=O)N2CCC[C@H]2C(N)=O)sc1-c1ccnc(C(C)(C)C(F)(F)F)c1 [Alpelisib] (partner 2 µM)
The gist of the method: as §1

With SK-LU-1, the relative viability with Halofuginone + Lapatinib (first compound 0.001 µM) was 0.945; in the test with Halofuginone + Lapatinib (first compound 0.003162 µM), 1.04; in the test with Halofuginone + Lapatinib (first compound 0.01 µM), 0.806; with Halofuginone + Lapatinib (first compound 0.03162 µM) it was 0.787; with Halofuginone + Lapatinib (first compound 0.1 µM), 0.505; with Decitabine + Pemetrexed (first compound 0.04 µM), 0.826. Besides, the relative viability turned out to be 0.754 with Decitabine + Pemetrexed (first compound 0.1265 µM); 0.406 with Decitabine + Pemetrexed (first compound 0.4 µM); 0.513 with Decitabine + Pemetrexed (first compound 1.265 µM); 0.49 with Decitabine + Pemetrexed (first compound 4 µM); 0.945 in the test with Cediranib + Foretinib (first compound 0.04 µM); 0.825 in the test with Cediranib + Foretinib (first compound 0.1265 µM). Also, the relative viability in the test with Cediranib + Foretinib (first compound 0.4 µM) was found to be 0.725; with Cediranib + Foretinib (first compound 1.265 µM), 0.876; with Cediranib + Foretinib (first compound 4 µM), 0.972; in the test with Decitabine + Alpelisib (first compound 0.04 µM), 0.62; in the test with Decitabine + Alpelisib (first compound 0.1265 µM) it was 0.637; with Decitabine + Alpelisib (first compound 0.4 µM), 0.485. For the same cell line, the relative viability with Decitabine + Alpelisib (first compound 1.265 µM) turned out to be 0.5; in the test with Decitabine + Alpelisib (first compound 4 µM), 0.284.
In the case of NCI-H2023, the relative viability came out at 0.8 with Halofuginone + Lapatinib (first compound 0.001 µM); 0.809 in the test with Halofuginone + Lapatinib (first compound 0.003162 µM); 0.874 with Halofuginone + Lapatinib (first compound 0.01 µM); 0.494 with Halofuginone + Lapatinib (first compound 0.03162 µM); 0.0821 with Halofuginone + Lapatinib (first compound 0.1 µM); 0.14 with Decitabine + Pemetrexed (first compound 0.04 µM). Besides, the relative viability with Decitabine + Pemetrexed (first compound 0.1265 µM) stood at 0.175; in the test with Decitabine + Pemetrexed (first compound 0.4 µM), 0.144; with Decitabine + Pemetrexed (first compound 1.265 µM) it was 0.126; with Decitabine + Pemetrexed (first compound 4 µM) it was 0.115; with Cediranib + Foretinib (first compound 0.04 µM) it was 0.775; in the test with Cediranib + Foretinib (first compound 0.1265 µM), 0.922. The relative viability amounted to 0.924 with Cediranib + Foretinib (first compound 0.4 µM); 0.878 with Cediranib + Foretinib (first compound 1.265 µM); 1.01 with Cediranib + Foretinib (first compound 4 µM); 0.438 in the test with Decitabine + Alpelisib (first compound 0.04 µM); 0.461 in the test with Decitabine + Alpelisib (first compound 0.1265 µM); 0.305 with Decitabine + Alpelisib (first compound 0.4 µM). In addition, the relative viability with Decitabine + Alpelisib (first compound 1.265 µM) stood at 0.214; in the test with Decitabine + Alpelisib (first compound 4 µM) it was 0.188.
On to HCC-366, for which the relative viability in the test with Halofuginone + Lapatinib (first compound 0.001 µM) was determined as 1.05; with Halofuginone + Lapatinib (first compound 0.003162 µM), 1.17; with Halofuginone + Lapatinib (first compound 0.01 µM), 0.979; with Halofuginone + Lapatinib (first compound 0.03162 µM), 1.08; with Halofuginone + Lapatinib (first compound 0.1 µM) it was 0.542; with Decitabine + Pemetrexed (first compound 0.04 µM), 0.16. The relative viability amounted to 0.115 with Decitabine + Pemetrexed (first compound 0.1265 µM); 0.0833 with Decitabine + Pemetrexed (first compound 0.4 µM); 0.0595 with Decitabine + Pemetrexed (first compound 1.265 µM); 0.0583 in the test with Decitabine + Pemetrexed (first compound 4 µM); 0.935 with Cediranib + Foretinib (first compound 0.04 µM); 0.902 with Cediranib + Foretinib (first compound 0.1265 µM). Further, the relative viability is 0.772 with Cediranib + Foretinib (first compound 0.4 µM); 0.94 with Cediranib + Foretinib (first compound 1.265 µM); 1.01 with Cediranib + Foretinib (first compound 4 µM); 0.455 with Decitabine + Alpelisib (first compound 0.04 µM); 0.597 with Decitabine + Alpelisib (first compound 0.1265 µM); 0.31 with Decitabine + Alpelisib (first compound 0.4 µM). The relative viability with Decitabine + Alpelisib (first compound 1.265 µM) stood at 0.133; with Decitabine + Alpelisib (first compound 4 µM), 0.0897.
As to NCI-H1650, the relative viability in the test with Halofuginone + Lapatinib (first compound 0.001 µM) amounted to 0.594; in the test with Halofuginone + Lapatinib (first compound 0.003162 µM), 0.787; with Halofuginone + Lapatinib (first compound 0.01 µM), 0.677; in the test with Halofuginone + Lapatinib (first compound 0.03162 µM) it was 0.704; with Halofuginone + Lapatinib (first compound 0.1 µM), 0.194; in the test with Decitabine + Pemetrexed (first compound 0.04 µM) it was 0.325. Further, the relative viability with Decitabine + Pemetrexed (first compound 0.1265 µM) was 0.311; in the test with Decitabine + Pemetrexed (first compound 0.4 µM), 0.27; with Decitabine + Pemetrexed (first compound 1.265 µM), 0.25; with Decitabine + Pemetrexed (first compound 4 µM), 0.25; with Cediranib + Foretinib (first compound 0.04 µM), 1.07; with Cediranib + Foretinib (first compound 0.1265 µM), 1.36. Moreover, the relative viability amounted to 1.14 with Cediranib + Foretinib (first compound 0.4 µM), 1.08 with Cediranib + Foretinib (first compound 1.265 µM) and 0.873 with Cediranib + Foretinib (first compound 4 µM).
